Test results taken from patent US9908886B2 (Agency for Science, Technology and Research, priority 2012, dated 2018).

Tests used:
MNK1 = MNK1 (Homo sapiens, UniProt Q9BUB5); experiment: In vitro MNK kinase assay (Caliper LabChip mobility shift); type: biochemical; settings: enzymatic, 1.2 mM ATP; read-out: IC50 Mnk1
MNK2 = MNK2 (Homo sapiens (Human), UniProt Q9HBH9); experiment: as above; type: biochemical; settings: enzymatic, 250 μM ATP; read-out: IC50 Mnk2
Chain of MNK2 (Q9HBH9 84-388): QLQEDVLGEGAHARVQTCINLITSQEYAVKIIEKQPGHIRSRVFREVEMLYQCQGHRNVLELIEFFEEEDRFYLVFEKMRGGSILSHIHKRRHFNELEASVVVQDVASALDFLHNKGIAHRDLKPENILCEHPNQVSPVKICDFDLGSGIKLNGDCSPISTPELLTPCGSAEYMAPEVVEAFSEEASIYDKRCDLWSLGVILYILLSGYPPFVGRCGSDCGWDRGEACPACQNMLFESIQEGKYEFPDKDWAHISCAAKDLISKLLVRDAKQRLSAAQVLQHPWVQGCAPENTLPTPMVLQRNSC

Row | SMILES | IC50 (MNK1) [µM] | IC50 (MNK2) [µM]
1 | CC(=O)Nc1cc(-c2ccc3ncc(-c4ccc(C#N)cc4)n3n2)ccc1C(=O)N1CCC(N(C)C)CC1 [Example 81, N-(5-(3-(4-cyanophenyl)imidazo[1,2-b]pyridazin-6-yl)-2-(4-(dimethylamino)piperidine-1-carbonyl)phenyl)acetamide] | < 0.1 | < 0.1
2 | N#Cc1ccc(-c2cnc3ccc(-c4ccc(C(=O)N5CCC(N6CCOCC6)CC5)cc4)cn23)cc1 [Example 134, 4-(6-(4-(4-morpholinopiperidine-1-carbonyl)phenyl)imidazo[1,2-a]pyridin-3-yl)benzonitrile] | < 0.1 | < 0.1
3 | N#Cc1ccc(-c2cnc3ccc(-c4ccc(C(=O)NCC(=O)N5CCOCC5)cc4)cn23)cc1 [Example 115, 4-(3-(4-cyanophenyl)imidazo[1,2-a]pyridin-6-yl)-N-(2-morpholino-2-oxoethyl)benzamide] | < 1 | < 1
4 | CC(C)(C)N1CCN(C(=O)c2ccc(-c3cn4c(-c5ccc(C#N)cc5)cnc4cn3)cc2)CC1 [Example 26, 4-(6-(4-(4-tert-butylpiperazine-1-carbonyl)phenyl)imidazo[1,2-a]pyrazin-3-yl)benzonitrile] | < 1 | < 1
5 | N#Cc1ccc(-c2cnc3ccc(-c4ccc(C(=O)N5CCC(CCN)CC5)cc4)cn23)cc1 [Example 124, 4-(6-(4-(4-(2-aminoethyl)piperidine-1-carbonyl)phenyl)imidazo[1,2-a]pyridin-3-yl)benzonitrile] | < 0.1 | < 0.1
6 | CNC1CCN(C(=O)c2ccc(-c3ccc4ncc(-c5ccc(C#N)cc5)n4n3)cc2)CC1 [Example 60, 4-(6-(4-(4-(methylamino)piperidine-1-carbonyl)phenyl)imidazo[1,2-b]pyridazin-3-yl)benzonitrile] | < 0.1 | < 0.1
7 | CN1CCN(C(=O)c2ccc(-c3ccc4ncc(-c5ccc(C#N)cc5)n4c3)cc2Cl)CC1 [Example 141, 4-(6-(3-chloro-4-(4-methylpiperazine-1-carbonyl)phenyl)imidazo[1,2-a]pyridin-3-yl)benzonitrile] | < 0.1 | < 0.1
8 | N#Cc1ccc(-c2cnc3ccc(-c4ccc(C(=O)NCCN5CCOCC5)cc4)cn23)cc1 [Example 116, 4-(3-(4-cyanophenyl)imidazo[1,2-a]pyridin-6-yl)-N-(2-morpholinoethyl)benzamide] | < 1 | < 1
9 | CN1CCCN(C(=O)c2ccc(-c3ccc4ncc(-c5ccc(C#N)cc5)n4c3)cc2)CC1 [Example 103, 4-(6-(4-(4-methyl-1,4-diazepane-1-carbonyl)phenyl)imidazo[1,2-a]pyridin-3-yl)benzonitrile] | < 0.1 | < 0.1
10 | N#Cc1ccc(-c2cnc3ccc(-c4ccc(C(=O)N5CCNCC5)cc4)cn23)cc1 [Example 165, 4-(6-(4-(piperazine-1-carbonyl)phenyl)imidazo[1,2-a]pyridin-3-yl)benzonitrile] | < 0.1 | < 0.1
11 | Cc1cc(-c2ccc3ncc(-c4ccc(C#N)cc4)n3n2)ccc1C(=O)N1CCN(C)CC1 [Example 74, 4-(6-(3-methyl-4-(4-methylpiperazine-1-carbonyl)phenyl)imidazo[1,2-b]pyridazin-3-yl)benzonitrile] | < 0.1 | < 0.1
12 | N#Cc1ccc(-c2cnc3cnc(-c4ccc(C(=O)N5CCC(O)CC5)cc4)cn23)cc1 [Example 15, 4-(6-(4-(4-hydroxypiperidine-1-carbonyl)phenyl)imidazo[1,2-a]pyrazin-3-yl)benzonitrile] | < 1 | < 1
13 | CN1CCN(C(=O)c2ccc(-c3ccc4ncc(-c5ccc(C#N)cc5)n4c3)cc2N)CC1 [Example 146, 4-(6-(3-amino-4-(4-methylpiperazine-1-carbonyl)phenyl)imidazo[1,2-a]pyridin-3-yl)benzonitrile] | < 0.1 | < 0.1
